From patent US6774143B1, “Method for treating cells resistant to antineoplastic agents” (Novartis AG, priority 2003, dated 2004)
Where two headings read alike, the source gives them in different places.

Tests used:
HCT-15 colon cells = experiment: Antiproliferative assay, methylene blue staining; type: cell-based; conditions: Homo sapiens, read-out: IC50 antiproliferative activity
Text: The following cell lines are obtained from the American Type Culture Collection (ATCC, Rockville, Md., USA): human colon carcinomas HCT-15 (CCL 225) and HCT-116 (CCL 247), human lung adenocarcinoma A549 (CCL 185), human large cell carcinoma NCI-H460 (HTB 177), estrogen-independent breast carcinoma MDA-MB-231 ([…]), prostate cancer cell line Du 145 (HTB 81). The human KB-31 (drug-sensitive) and KB-8511 (multidrug-resistant, Pgp170 overexpressing) epidermoid carcinoma cells are obtained from Dr. R. M. Baker, Roswell Park Memorial Institute (Buffalo, N.Y., USA) and have been previously described (Akiyam S, et al. Somatic Cell Molec Genetics 1985;11:117-126 and Fojo A, et al., Cancer Res. […];45:3002-3007). The human metastatic prostate carcinoma PC-3M is obtained from Dr. I. J. Fidler (MD Anderson Cancer Center, Houston, Tex., USA). The estrogen-dependent human breast carcinoma cell line MCF-7/ADR (multidrug resistant) is a subline of the MCF-7 cell line (ATCC HTB 22) and is obtained from Dr. D. Fabbro (Novartis Pharma AG, Basel, Switzerland) and has been previously described (Blobe G C, et al. J. Biol. Chem. 1993; 268:658-664).
For the antiproliferative assays, cells are seeded at 1.5×10^3/well into 96-well microtiter plates and incubated overnight. Compounds are added in serial dilutions on day 1. The plates are than incubated for additional 5 days. This allowed the control cultures to undergo at least 3 cell divisions. After incubation the cells are fixed with 3.3% v/v glutaraldehyde, washed with water and stained with 0.05% w/v methylene blue. After washing, the dye is eluted with 3% v/v HCl and the optical density measured at 665 nm with a SpectraMax 340 (Bucherer, Basel, Switzerland). IC50 values are determined by a computerized system (SoftPro, Bucherer, Basel, Switzerland) using the formula (OD test—OD start)/(OD control—OD start)×100. IC50 is defined as the drug concentration which leads to 50% of cells per well compared to control cultures (100%) at the end of the incubation period.

PTX-22 cells = experiment: Antiproliferative assay (MTS); type: cell-based, human
Protocol: A549, a human non-small cell lung carcinoma and MDA-MB-435, a human breast carcinoma, used in this study are obtained from the American Type Culture Collection (ATCC, Rockville, Md., USA). MDA-MB-435 cells are maintained in MEM containing 10% FBS, 1% sodium pyruvate, 1% MEM non-essential amino acids, and 15 mM HEPES (pH=7.4). A549 cells are maintained in RPMI 1640 containing 10% FBS. 1A9, a single-cell clone of the human ovarian carcinoma cell line A2780 and PTX22, the paclitaxel-resistant subline, used in this stdy are obtained from M. Wartman (Novartis Pharmauticals). 1A9 cells and PTX22 cells are maintained in RPMI 1640 supplemented with 10% FBS. PTX22 maintenance media also contained 15 ng/mL paclitaxel and 5 μg/mL verapamil. Drug is removed from the media for 5-7 days before use in an experiment. All maintenance media contained 100 units/mL penicillin and 100 μg/mL streptomycin.
Cell lines are trypsinized and counted using a Coulter counter. Cells were plated in 96 well plates (190 μL/well) at the following densities: 1,000 cells/well for A549 and 3,000 cells/well for MDA-MB-435. The number of cells plated results in cell densities of 75-90% confluence by the time of harvest. Plates are seeded on day 0. On day 1 test compounds are added to triplicate wells in a final volume of 10 μL media. Initial cell density for each cell line is measured on day 1 by adding 10 μL MTS mixture (see below), incubating for 4 h and recording absorbance at 490 nm (A490). Two or three days after test compound addition, 10 μL/well of MTS mixture is added to the test plates and A490 was read 4 h later. A490 values for wells containing cells are corrected for media absorbance, then normalized to initial density readings to determine percent net growth. Percent net growth is calculated as (A490+drug−A490 initial)/(A490—drug—A490 initial). Graphs of percent net growth as a function of compound concentration are used to calculate concentrations resulting in 50% growth inhibition (IC50). MTS mixture is prepared fresh on day of addition to cell plates at a ratio of 10 μL of a 0.92 mg/mL solution of phenazine methosulfate (PMS) to 190 μL of a 2 mg/mL solution of MTS (3-(4,5-dimethylthiazol-2-yl)-5-(3-carboxymethoxyphenyl)-2-(4-sulfophenyl)-2H-tetrazolium, inner salt). PMS and MTS solutions are prepared in buffered saline containing 0.2 g/L KCl, 8.0 g/L NaCl, 0.2 g/L KH2PO4, 1.15 g/L Na2HPO4, 133 mg/L CaCl2.2H2O, 100 mg/L MgCl2.6H2O, (pH=7.35) and stored as foil-wrapped aliquots at −20° C. Test compounds are prepared as stock solutions in DMSO. Test compound dilutions are made in 2% DMSO/cell maintenance media and diluted into assay plates to give 0.1% DMSO final in all wells.

Row | Compound | IC50 (HCT-15 colon cells; HCT-15, 120 h) | IC50 (PTX-22 cells; Homo sapiens, 72 h, read-out: 72 hour IC50, PTX-22 cells, single value given) | IC50 (PTX-22 cells; Homo sapiens, 72 h, read-out: IC50 cell proliferation, PTX-22 cells, 72 h exposure, two independent experiments) | IC50 (PTX-22 cells; read-out: IC50 cell proliferation, PTX-22 cells, 72 h exposure, two independent experiments) | IC50 (HCT-15 colon cells; 120 h, HCT-15 colon cells, 5 days incubation) | IC50 (PTX-22 cells; Homo sapiens, 72 h, PTX-22 cells, single value given, read-out: 72 hour IC50) | fold less sensitive, PTX-22 versus 1A9 (PTX-22 cells; from the 72 hour IC50 values)
1 | C=C/C=C\[C@H](C)[C@H](OC(N)=O)[C@@H](C)[C@H](O)[C@@H](C)C/C(C)=C\[C@H](C)[C@@H](O)[C@@H](C)/C=C\[C@@H](O)C[C@@H]1OC(=O)[C@H](C)[C@@H](O)[C@H]1C [discodermolide, (+)-Discodermolide] | ~0.008 µM | 0.03 µM | 0.023 µM | 0.037 µM | – | – | –
2 | CC(=O)O[C@H]1C(=O)[C@@]2(C)[C@H]([C@H](OC(=O)c3ccccc3)[C@]3(O)C[C@H](OC(=O)[C@H](O)[C@@H](NC(=O)c4ccccc4)c4ccccc4)C(C)=C1C3(C)C)[C@]1(OC(C)=O)CO[C@@H]1C[C@@H]2O [paclitaxel, reference compound] | – | – | – | – | ~0.12 µM | 0.08 µM | 13 fold
